Test results as given in ChEMBL document CHEMBL1158016, “Six new spongian diterpenes from the sponge spongia matamata” (J Nat Prod, 1999).
Values after ≈ are worked out from the molar mass of the structure shown.

Tested on: not listed separately
Experiment: (§1) Toxicity in brine shrimp
Assay type: organism-based
Settings: artemia, in vivo

SMILES | LC50
C[C@]12CCC[C@](C)(C(=O)O)[C@@H]1CC[C@@]1(C)c3cocc3CC[C@H]21 | 10 µg/mL (≈ 31.6 µM)

Tested on: Artemia
Experiment: as §1
Assay type: organism-based
Settings: in vivo

SMILES | Activity
CO[C@@H]1OC(=O)C2=C1CC[C@@H]1[C@@]3(C)CCC[C@](C)(C(=O)O)[C@@H]3CC[C@@]21C | Non-toxic
CO[C@H]1OC(=O)C2=C1[C@]1(C)CC[C@@H]3[C@](C)(CCC[C@]3(C)C(=O)O)[C@H]1CC2 | Non-toxic
C[C@]12CCC[C@](C)(C(=O)O)[C@@H]1CC[C@@]1(C)C3=C(CC[C@H]21)C(=O)OC3 | Non-toxic
C[C@]12CCC[C@](C)(C(=O)O)[C@@H]1CC[C@@]1(C)C3=C(CC[C@H]21)COC3=O | Non-toxic
COC1O[C@H](OC)[C@]2(O)[C@]1(O)CC[C@@H]1[C@@]3(C)CCC[C@](C)(C(=O)O)[C@@H]3CC[C@]12C (stereo partly specified) | Non-toxic
